The OligoGym collection
Oligonucleotides are given in HELM: sugar(base)linkage, 5' to 3'; d 2'-deoxyribose, r ribose, m 2'-O-methylribose, p phosphate. ss, as = sense and antisense strand

Target: TMEM63B
Experiment: reporter assay of Huesken 2005
Conditions: siRNA
Further: test concentration or dose not given here.

In order of falling normalised inhibition (eCFP-eYFP dual reporter):
1. RNA1{r(G)p.r(A)p.r(C)p.r(U)p.r(U)p.r(C)p.r(A)p.r(A)p.r(C)p.r(G)p.r(U)p.r(G)p.r(U)p.r(G)p.r(U)p.r(A)p.r(A)p.r(A)p.r(U)p.d(T)p.d(T)}|RNA2{r(A)p.r(U)p.r(U)p.r(U)p.r(A)p.r(C)p.r(A)p.r(C)p.r(A)p.r(C)p.r(G)p.r(U)p.r(U)p.r(G)p.r(A)p.r(A)p.r(G)p.r(U)p.r(C)p.d(C)p.d(T)}$$$RNA1{StrandType:ss}|RNA2{StrandType:as}$  102%
2. RNA1{r(G)p.r(A)p.r(C)p.r(C)p.r(G)p.r(G)p.r(U)p.r(A)p.r(U)p.r(G)p.r(A)p.r(G)p.r(C)p.r(G)p.r(U)p.r(C)p.r(U)p.r(C)p.r(A)p.d(T)p.d(T)}|RNA2{r(U)p.r(G)p.r(A)p.r(G)p.r(A)p.r(C)p.r(G)p.r(C)p.r(U)p.r(C)p.r(A)p.r(U)p.r(A)p.r(C)p.r(C)p.r(G)p.r(G)p.r(U)p.r(C)p.d(A)p.d(T)}$$$RNA1{StrandType:ss}|RNA2{StrandType:as}$  99%
3. RNA1{r(G)p.r(A)p.r(C)p.r(U)p.r(U)p.r(U)p.r(G)p.r(A)p.r(C)p.r(C)p.r(A)p.r(A)p.r(A)p.r(G)p.r(G)p.r(G)p.r(A)p.r(C)p.r(A)p.d(T)p.d(T)}|RNA2{r(U)p.r(G)p.r(U)p.r(C)p.r(C)p.r(C)p.r(U)p.r(U)p.r(U)p.r(G)p.r(G)p.r(U)p.r(C)p.r(A)p.r(A)p.r(A)p.r(G)p.r(U)p.r(C)p.d(A)p.d(A)}$$$RNA1{StrandType:ss}|RNA2{StrandType:as}$  89.5%
4. RNA1{r(G)p.r(C)p.r(A)p.r(C)p.r(A)p.r(A)p.r(G)p.r(U)p.r(G)p.r(C)p.r(U)p.r(A)p.r(C)p.r(A)p.r(C)p.r(U)p.r(U)p.r(U)p.r(C)p.d(T)p.d(T)}|RNA2{r(G)p.r(A)p.r(A)p.r(A)p.r(G)p.r(U)p.r(G)p.r(U)p.r(A)p.r(G)p.r(C)p.r(A)p.r(C)p.r(U)p.r(U)p.r(G)p.r(U)p.r(G)p.r(C)p.d(A)p.d(T)}$$$RNA1{StrandType:ss}|RNA2{StrandType:as}$  83.6%
5. RNA1{r(C)p.r(U)p.r(U)p.r(C)p.r(C)p.r(U)p.r(G)p.r(U)p.r(A)p.r(U)p.r(C)p.r(U)p.r(G)p.r(C)p.r(U)p.r(G)p.r(C)p.r(U)p.r(C)p.d(T)p.d(T)}|RNA2{r(G)p.r(A)p.r(G)p.r(C)p.r(A)p.r(G)p.r(C)p.r(A)p.r(G)p.r(A)p.r(U)p.r(A)p.r(C)p.r(A)p.r(G)p.r(G)p.r(A)p.r(A)p.r(G)p.d(G)p.d(C)}$$$RNA1{StrandType:ss}|RNA2{StrandType:as}$  75.8%
6. RNA1{r(C)p.r(U)p.r(G)p.r(U)p.r(G)p.r(G)p.r(A)p.r(C)p.r(C)p.r(C)p.r(C)p.r(A)p.r(G)p.r(A)p.r(A)p.r(G)p.r(C)p.r(A)p.r(A)p.d(T)p.d(T)}|RNA2{r(U)p.r(U)p.r(G)p.r(C)p.r(U)p.r(U)p.r(C)p.r(U)p.r(G)p.r(G)p.r(G)p.r(G)p.r(U)p.r(C)p.r(C)p.r(A)p.r(C)p.r(A)p.r(G)p.d(T)p.d(A)}$$$RNA1{StrandType:ss}|RNA2{StrandType:as}$  75.4%
7. RNA1{r(C)p.r(U)p.r(G)p.r(C)p.r(U)p.r(G)p.r(A)p.r(A)p.r(G)p.r(C)p.r(A)p.r(C)p.r(C)p.r(U)p.r(G)p.r(G)p.r(U)p.r(A)p.r(G)p.d(T)p.d(T)}|RNA2{r(C)p.r(U)p.r(A)p.r(C)p.r(C)p.r(A)p.r(G)p.r(G)p.r(U)p.r(G)p.r(C)p.r(U)p.r(U)p.r(C)p.r(A)p.r(G)p.r(C)p.r(A)p.r(G)p.d(C)p.d(A)}$$$RNA1{StrandType:ss}|RNA2{StrandType:as}$  75%
8. RNA1{r(G)p.r(A)p.r(U)p.r(A)p.r(C)p.r(U)p.r(G)p.r(U)p.r(G)p.r(G)p.r(A)p.r(C)p.r(C)p.r(C)p.r(C)p.r(A)p.r(G)p.r(A)p.r(A)p.d(T)p.d(T)}|RNA2{r(U)p.r(U)p.r(C)p.r(U)p.r(G)p.r(G)p.r(G)p.r(G)p.r(U)p.r(C)p.r(C)p.r(A)p.r(C)p.r(A)p.r(G)p.r(U)p.r(A)p.r(U)p.r(C)p.d(T)p.d(G)}$$$RNA1{StrandType:ss}|RNA2{StrandType:as}$  73.8%
9. RNA1{r(C)p.r(U)p.r(U)p.r(U)p.r(C)p.r(C)p.r(U)p.r(C)p.r(A)p.r(U)p.r(C)p.r(U)p.r(U)p.r(C)p.r(A)p.r(U)p.r(G)p.r(G)p.r(U)p.d(T)p.d(T)}|RNA2{r(A)p.r(C)p.r(C)p.r(A)p.r(U)p.r(G)p.r(A)p.r(A)p.r(G)p.r(A)p.r(U)p.r(G)p.r(A)p.r(G)p.r(G)p.r(A)p.r(A)p.r(A)p.r(G)p.d(T)p.d(G)}$$$RNA1{StrandType:ss}|RNA2{StrandType:as}$  72.7%
10. RNA1{r(G)p.r(C)p.r(A)p.r(A)p.r(C)p.r(G)p.r(U)p.r(G)p.r(A)p.r(A)p.r(G)p.r(C)p.r(G)p.r(G)p.r(C)p.r(A)p.r(U)p.r(C)p.r(A)p.d(T)p.d(T)}|RNA2{r(U)p.r(G)p.r(A)p.r(U)p.r(G)p.r(C)p.r(C)p.r(G)p.r(C)p.r(U)p.r(U)p.r(C)p.r(A)p.r(C)p.r(G)p.r(U)p.r(U)p.r(G)p.r(C)p.d(G)p.d(C)}$$$RNA1{StrandType:ss}|RNA2{StrandType:as}$  72.4%
11. RNA1{r(C)p.r(U)p.r(U)p.r(G)p.r(A)p.r(A)p.r(A)p.r(U)p.r(C)p.r(A)p.r(G)p.r(G)p.r(G)p.r(A)p.r(A)p.r(C)p.r(A)p.r(A)p.r(C)p.d(T)p.d(T)}|RNA2{r(G)p.r(U)p.r(U)p.r(G)p.r(U)p.r(U)p.r(C)p.r(C)p.r(C)p.r(U)p.r(G)p.r(A)p.r(U)p.r(U)p.r(U)p.r(C)p.r(A)p.r(A)p.r(G)p.d(T)p.d(T)}$$$RNA1{StrandType:ss}|RNA2{StrandType:as}$  71.1%
12. RNA1{r(G)p.r(C)p.r(A)p.r(A)p.r(C)p.r(G)p.r(C)p.r(C)p.r(A)p.r(U)p.r(G)p.r(G)p.r(A)p.r(C)p.r(C)p.r(U)p.r(G)p.r(C)p.r(U)p.d(T)p.d(T)}|RNA2{r(A)p.r(G)p.r(C)p.r(A)p.r(G)p.r(G)p.r(U)p.r(C)p.r(C)p.r(A)p.r(U)p.r(G)p.r(G)p.r(C)p.r(G)p.r(U)p.r(U)p.r(G)p.r(C)p.d(C)p.d(G)}$$$RNA1{StrandType:ss}|RNA2{StrandType:as}$  71.1%
13. RNA1{r(G)p.r(C)p.r(A)p.r(C)p.r(A)p.r(U)p.r(C)p.r(A)p.r(U)p.r(C)p.r(G)p.r(G)p.r(G)p.r(C)p.r(U)p.r(G)p.r(C)p.r(U)p.r(G)p.d(T)p.d(T)}|RNA2{r(C)p.r(A)p.r(G)p.r(C)p.r(A)p.r(G)p.r(C)p.r(C)p.r(C)p.r(G)p.r(A)p.r(U)p.r(G)p.r(A)p.r(U)p.r(G)p.r(U)p.r(G)p.r(C)p.d(C)p.d(G)}$$$RNA1{StrandType:ss}|RNA2{StrandType:as}$  69.9%
14. RNA1{r(C)p.r(U)p.r(G)p.r(G)p.r(U)p.r(C)p.r(A)p.r(U)p.r(C)p.r(A)p.r(C)p.r(C)p.r(A)p.r(U)p.r(C)p.r(G)p.r(U)p.r(C)p.r(A)p.d(T)p.d(T)}|RNA2{r(U)p.r(G)p.r(A)p.r(C)p.r(G)p.r(A)p.r(U)p.r(G)p.r(G)p.r(U)p.r(G)p.r(A)p.r(U)p.r(G)p.r(A)p.r(C)p.r(C)p.r(A)p.r(G)p.d(G)p.d(A)}$$$RNA1{StrandType:ss}|RNA2{StrandType:as}$  67%
15. RNA1{r(G)p.r(A)p.r(G)p.r(G)p.r(C)p.r(G)p.r(C)p.r(A)p.r(A)p.r(C)p.r(G)p.r(U)p.r(G)p.r(A)p.r(A)p.r(G)p.r(C)p.r(G)p.r(G)p.d(T)p.d(T)}|RNA2{r(C)p.r(C)p.r(G)p.r(C)p.r(U)p.r(U)p.r(C)p.r(A)p.r(C)p.r(G)p.r(U)p.r(U)p.r(G)p.r(C)p.r(G)p.r(C)p.r(C)p.r(U)p.r(C)p.d(T)p.d(C)}$$$RNA1{StrandType:ss}|RNA2{StrandType:as}$  59.5%
16. RNA1{r(C)p.r(U)p.r(G)p.r(U)p.r(A)p.r(C)p.r(U)p.r(U)p.r(C)p.r(A)p.r(C)p.r(A)p.r(A)p.r(A)p.r(C)p.r(C)p.r(U)p.r(C)p.r(C)p.d(T)p.d(T)}|RNA2{r(G)p.r(G)p.r(A)p.r(G)p.r(G)p.r(U)p.r(U)p.r(U)p.r(G)p.r(U)p.r(G)p.r(A)p.r(A)p.r(G)p.r(U)p.r(A)p.r(C)p.r(A)p.r(G)p.d(C)p.d(T)}$$$RNA1{StrandType:ss}|RNA2{StrandType:as}$  57.4%
17. RNA1{r(G)p.r(A)p.r(G)p.r(A)p.r(G)p.r(G)p.r(C)p.r(G)p.r(C)p.r(A)p.r(A)p.r(C)p.r(G)p.r(U)p.r(G)p.r(A)p.r(A)p.r(G)p.r(C)p.d(T)p.d(T)}|RNA2{r(G)p.r(C)p.r(U)p.r(U)p.r(C)p.r(A)p.r(C)p.r(G)p.r(U)p.r(U)p.r(G)p.r(C)p.r(G)p.r(C)p.r(C)p.r(U)p.r(C)p.r(U)p.r(C)p.d(G)p.d(G)}$$$RNA1{StrandType:ss}|RNA2{StrandType:as}$  56.8%
18. RNA1{r(C)p.r(U)p.r(G)p.r(C)p.r(U)p.r(C)p.r(A)p.r(U)p.r(G)p.r(U)p.r(A)p.r(C)p.r(A)p.r(U)p.r(G)p.r(A)p.r(U)p.r(C)p.r(C)p.d(T)p.d(T)}|RNA2{r(G)p.r(G)p.r(A)p.r(U)p.r(C)p.r(A)p.r(U)p.r(G)p.r(U)p.r(A)p.r(C)p.r(A)p.r(U)p.r(G)p.r(A)p.r(G)p.r(C)p.r(A)p.r(G)p.d(G)p.d(C)}$$$RNA1{StrandType:ss}|RNA2{StrandType:as}$  49%
19. RNA1{r(C)p.r(U)p.r(U)p.r(C)p.r(U)p.r(U)p.r(U)p.r(U)p.r(C)p.r(C)p.r(A)p.r(C)p.r(C)p.r(A)p.r(U)p.r(G)p.r(C)p.r(G)p.r(C)p.d(T)p.d(T)}|RNA2{r(G)p.r(C)p.r(G)p.r(C)p.r(A)p.r(U)p.r(G)p.r(G)p.r(U)p.r(G)p.r(G)p.r(A)p.r(A)p.r(A)p.r(A)p.r(G)p.r(A)p.r(A)p.r(G)p.d(A)p.d(G)}$$$RNA1{StrandType:ss}|RNA2{StrandType:as}$  39.7%
20. RNA1{r(C)p.r(U)p.r(U)p.r(U)p.r(U)p.r(C)p.r(C)p.r(A)p.r(C)p.r(C)p.r(A)p.r(U)p.r(G)p.r(C)p.r(G)p.r(C)p.r(A)p.r(C)p.r(G)p.d(T)p.d(T)}|RNA2{r(C)p.r(G)p.r(U)p.r(G)p.r(C)p.r(G)p.r(C)p.r(A)p.r(U)p.r(G)p.r(G)p.r(U)p.r(G)p.r(G)p.r(A)p.r(A)p.r(A)p.r(A)p.r(G)p.d(A)p.d(A)}$$$RNA1{StrandType:ss}|RNA2{StrandType:as}$  0%
